Assay results as given in PubChem BioAssay AID212 (DTP/NCI, 2004).
“And” between values parts separate entries of the source, which are not always exact repeats. Identical values can stand only once. Inconclusive results are not listed.

Test system: BDF1 mice, colon carcinoma 38 sc, T/C %
Test: NCI In Vivo Anticancer Drug Screen. Data for tumor model Colon Carcinoma 38 (subcutaneous) in B6D2F1 (BDF1) mice
Details: endpoint: median tumor weight (est.), higher = larger tumour
Procedure, shortened: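 Ratio of survival or tumor size, compound-treated animals relative to vehicle controls, in tumor-bearing mice.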

[1] = dose: 12.5 mg/kg/injection, schedule: Q07DX002 (ip), vehicle: saline
[2] = dose: 25.0 mg/kg/injection, schedule: Q07DX002 (ip), vehicle: saline
[3] = dose: 50.0 mg/kg/injection, schedule: Q07DX002 (ip), vehicle: saline
[4] = dose: 100.0 mg/kg/injection, schedule: Q07DX002 (ip), vehicle: saline
[5] = dose: 200.0 mg/kg/injection, schedule: Q07DX002 (ip), vehicle: saline

SMILES: CC1(C)COCN1COCCOCN1COCC1(C)C
- T/C [1]: 87 % of control
- T/C [2]: 109 % of control and 112 % of control
- T/C [3]: 80 % of control and 95 % of control
- T/C [4]: 81 % of control and 88 % of control

SMILES: CN1CCN(c2ccc3nc(-c4ccc5nc(-c6ccc(O)cc6)[nH]c5c4)[nH]c3c2)CC1
- T/C [2]: 119 % of control
- T/C [3]: 116 % of control
- T/C [4]: 70 % of control
- T/C [5]: 97 % of control

SMILES: COC(=O)C(Cl)(Cl)N=Nc1c(Cl)cc(Cl)c(C)c1Cl
- T/C [1]: 118 % of control
- T/C [2]: 123 % of control
- T/C [3]: 123 % of control
- T/C [5]: 101 % of control

SMILES: C1OC1CN1CCN(CC2CO2)CC1 (stereo unspecified)
- T/C (dose: 3.12 mg/kg/injection, schedule: Q07DX002 (ip), vehicle: saline): 98 % of control
- T/C (dose: 3.12 mg/kg/injection, schedule: Q07DX003 (ip), vehicle: saline): 1 % of control
- T/C (dose: 6.25 mg/kg/injection, schedule: Q07DX003 (ip), vehicle: saline): 23 % of control
- T/C [1]: 77 % of control
- T/C (dose: 12.5 mg/kg/injection, schedule: Q07DX003 (ip), vehicle: saline): 9 % of control
- T/C [2]: 100 % of control
- T/C (dose: 25.0 mg/kg/injection, schedule: Q07DX003 (ip), vehicle: saline): 20 % of control
- T/C [3]: 77 % of control
- T/C (dose: 50.0 mg/kg/injection, schedule: Q07DX003 (ip), vehicle: saline): 4 % of control

SMILES: O=Cc1ccccc1
- T/C (dose: 25.0 mg/kg/injection, schedule: Q07DX002 (ip), vehicle: Klucel (hydroxypropylcellulose) (HPC)): 77 % of control
- T/C (dose: 25.0 mg/kg/injection, schedule: Q07DX002 (ip), vehicle: saline with Tween-80): 69 % of control
- T/C (dose: 50.0 mg/kg/injection, schedule: Q07DX002 (ip), vehicle: Klucel (hydroxypropylcellulose) (HPC)): 83 % of control
- T/C (dose: 50.0 mg/kg/injection, schedule: Q07DX002 (ip), vehicle: saline with Tween-80): 77 % of control
- T/C (dose: 100.0 mg/kg/injection, schedule: Q07DX002 (ip), vehicle: Klucel (hydroxypropylcellulose) (HPC)): 98 % of control
- T/C (dose: 100.0 mg/kg/injection, schedule: Q07DX002 (ip), vehicle: saline with Tween-80): 108 % of control
- T/C (dose: 200.0 mg/kg/injection, schedule: Q07DX002 (ip), vehicle: Klucel (hydroxypropylcellulose) (HPC)): 60 % of control
- T/C (dose: 200.0 mg/kg/injection, schedule: Q07DX002 (ip), vehicle: saline with Tween-80): 112 % of control
- T/C (dose: 400.0 mg/kg/injection, schedule: Q07DX002 (ip), vehicle: Klucel (hydroxypropylcellulose) (HPC)): 97 % of control

SMILES: N#CC(C#N)=C/C=C/c1cccc([N+](=O)[O-])c1
- T/C (dose: 6.25 mg/kg/injection, schedule: Q07DX003 (ip), vehicle: Klucel (hydroxypropylcellulose) (HPC)): 79 % of control
- T/C (dose: 12.5 mg/kg/injection, schedule: Q07DX003 (ip), vehicle: Klucel (hydroxypropylcellulose) (HPC)): 77 % of control
- T/C (dose: 25.0 mg/kg/injection, schedule: Q07DX003 (ip), vehicle: Klucel (hydroxypropylcellulose) (HPC)): 76 % of control
- T/C (dose: 50.0 mg/kg/injection, schedule: Q07DX003 (ip), vehicle: Klucel (hydroxypropylcellulose) (HPC)): 60 % of control

SMILES: O=C1C(NCCO)=C(N2CC2)C(=O)C(NCCO)=C1N1CC1
- T/C (dose: 0.12 mg/kg/injection, schedule: Q07DX002 (ip), vehicle: saline): 83 % of control and 91 % of control
- T/C (dose: 0.25 mg/kg/injection, schedule: Q07DX002 (ip), vehicle: saline): 92 % of control

SMILES: CCC(=O)N(C)[C@@H](C)C(=O)O[C@H]1CC(=O)N(C)c2cc(cc(OC)c2Cl)C/C(C)=C/C=C[C@@H](OC)[C@@]2(O)C[C@H](OC(=O)N2)[C@@H](C)[C@@H]2O[C@@]12C
- T/C (dose: 7.5 micrograms/kg/injection, schedule: Q07DX002 (ip), vehicle: saline + alcohol): 62 % of control
- T/C (dose: 30.0 micrograms/kg/injection, schedule: Q07DX002 (ip), vehicle: saline + alcohol): 84 % of control
- T/C (dose: 120.0 micrograms/kg/injection, schedule: Q07DX002 (ip), vehicle: saline + alcohol): 108 % of control

SMILES: COC(=O)Nc1ccc(Cc2ccc(NC(=O)OC)cc2)cc1
- T/C (dose: 6.25 mg/kg/injection, schedule: Q07DX002 (ip), vehicle: saline with Tween-80): 60 % of control
- T/C (dose: 400.0 mg/kg/injection, schedule: Q07DX002 (ip), vehicle: saline with Tween-80): 87 % of control and 102 % of control
